These results are taken from ChEMBL document CHEMBL6120935, “Multifunctional Molecular Hybrids Photoreleasing Nitric Oxide: Advantages, Pitfalls, and Opportunities” (J Med Chem, 2024).

The data set is described as follows: n-Octanol/PBS partition coefficient, logP of compound at pH 7.4 incubated for 4 hrs under shaking condition by UV spectrophotometric analysis. It is filed as physicochemical.
In the case of `O=C(CCCCCCCC[P+](c1ccccc1)(c1ccccc1)c1ccccc1)NCCCNc1ccc([N+](=O)[O-])c(C(F)(F)F)c1`, the logD (commonly the decadic logarithm of the distribution of all forms, ionised or not, between an organic phase and buffer at a given pH) at 4 h stood at 2.78. For `O=C(CCCCC[P+](c1ccccc1)(c1ccccc1)c1ccccc1)NCCCNc1ccc([N+](=O)[O-])c(C(F)(F)F)c1`, the logD at 4 h came to 2.39. As to `CC(=O)NCCCNc1ccc([N+](=O)[O-])c(C(F)(F)F)c1`, the logD at 4 h is 2.03. To `O=C(CCCCCCCCC[P+](c1ccccc1)(c1ccccc1)c1ccccc1)NCCCNc1ccc([N+](=O)[O-])c(C(F)(F)F)c1` belongs 3.24; to `O=C(CC[P+](c1ccccc1)(c1ccccc1)c1ccccc1)NCCCNc1ccc([N+](=O)[O-])c(C(F)(F)F)c1`, 1.99.
